Data set [1] deals with Mut MEFs (primary fibroblasts from Eif2b5 R132H/R132H mice). Put plainly: Image-based single cell analysis of ROS level (cellROX). Also on record: species or system mouse. The conditions noted are these: 10 μM, 24 hours incubation, compared with WT level (FIG. 3). The protocol:
Mut MEFs were treated with the indicated compounds at 10 μM for 24 hours followed by staining with fluorogenic dyes and image-based single-cell analysis. Shown is average effect on ROS level from at least 3-independent experiments ±SEM. All values are statistically significant, p<0.02. The extreme SEM points of all values are below the 90% cut-off, therefore the actual average reduction is between 12% and 29%. […] Mut MEFs were incubated or not for 24 hours with 10 μM of the indicated compound, washed and stained with Crystal Violet. Shown is average absorbance at 570 nm normalized (%) to non-treated cells of 3 independent experiments ±SEM, * p=0.0003. […] Mut MEFs were incubated or not for 24 hours with 10 μM of the indicated compound, washed and stained with JC1 and Hoechst followed by image-based single-cell analysis. […]
To assay the compounds, cellROX, a reactive oxygen species (ROS) fluorescent detector and a preferred in-situ mitochondrial content detector, was used for single cell-based imaging analysis as detailed previously (Raini et al., 2017). […] Compounds toxicity was evaluated by testing cell survival following 24 hours incubation with 10 μM of each compound using crystal violet staining (FIG. 14B). […] The other 19 compounds were not toxic; therefore, maximal working concentrations tolerated by the cells were further evaluated (Table 3 hereinbelow).

For data set [2], the system named is Mut MEFs. Put plainly: Cell survival assay, Crystal violet staining, Mut MEFs. The class given is cell-based, mouse. Particulars: for Survival (%) ± SEM Mut MEFs: 24 hours, untreated cells set to 100%. The protocol: (§1) Cells were seeded on 96-wells plate at a density of 5000 cells per well. Astrocytes were seeded following coating with 0.001% PDL.
Another data set deals with Mut astrocytes. Briefly: Survival under Tunicamycin-induced ER stress, Crystal Violet, astrocytes. Particulars: 20-50 μM, 50 ng/ml Tunicamycin last 22 hours (FIG. 19). The class given is cell-based, mouse. The protocol:
WT and Mut astrocytes were treated or not for 24 hours with 20, 30 or 50 μM of the indicated Sig-1R binders in the presence of 50 ng/ml Tunicamycin (Tun) during the last 22 hours. Following, the cells were washed, fixated and stained with Crystal Violet (CV) followed by measurement of absorbance at 570 nm. Shown is % of CV staining relative to cells not treated with tunicamycin nor Sig-1R binder ±SEM of 3 independent experiments, *p<0.05.
as §1

Data set [3] relates to Mut MEFs. Put plainly: Survival under Tunicamycin-induced ER stress, Crystal Violet, MEFs. Particulars: 20 μM, 24 hours, Tunicamycin during the last 22 hours (FIGS. 9, 10 and 18).
Method: Mut MEFs were treated or not for 24 hours with the indicated concentrations of the indicated Sig-1R binders in the presence of 0.1 μg/ml Tunicamycin (Tun) during the last 22 hours. Following, the cells were washed, fixated and stained with Crystal Violet (CV) followed by measurement of absorbance at 570 nm. Shown is average % of CV staining relative to cells not treated with tunicamycin nor Sig-1R binder ±SEM of 3 independent experiments. *p<0.03.
Following, the cells were washed, fixated and stained with Crystal Violet and absorbance at 570 nm was measured. Data is presented relative to cells of the corresponding genotype not treated with p8G5 nor Tunicamycin. Shown is average % of CV staining ±SEM of 3 independent experiments.
Mut MEFs were treated or not for 24 hours with 10, 20 or 30 μM of the indicated Sig-1R binders in the presence of 50 ng/ml Tunicamycin (Tun) during the last 22 hours. Following, the cells were washed, fixated and stained with Crystal Violet (CV) followed by measurement of absorbance at 570 nm. Shown is % of CV staining relative to cells not treated with tunicamycin nor Sig-1R binder ±SEM of 3 independent experiments, *p<0.05.
Mut MEFs were incubated or not with the indicated concentrations of the indicated compounds for 2 hours followed by addition of 50 ng/ml Tunicamycin (Tun) for additional 22 hours, stained with Crystal Violet followed by measurement of absorbance at 570 nm. Shown is average normalized to Tun-treated cells without any compound ±SEM of 3 independent experiments. * not significant; ** p<0.02; *** all values p<0.04.

For the compound `Cc1cccc(OCCCCCN2CCOCC2)c1` [H8 (p8G5), 4-[5-(3-methylphenoxy)pentyl]morpholine], the “level of ROS (CellROX) in Mut cells” value in data set [1] is given as “corrected the abnormal level of ROS”. Further, the “Survival (%) ± SEM Mut MEFs” value in the data set on Mut MEFs [2] (0.1 μM) is given as 104 ± 4.6%; in the data set on Mut MEFs [2] (1 μM), 102 ± 3.3%; with Mut MEFs [2] (10 μM) it was 99 ± 2.6%; in the data set with Mut MEFs [2] (30 μM) it was 105 ± 13%. In the data set with Mut MEFs [2] (as high as 30 μM (FIG. 4, Table 3)), the “effect on survival of Mut cells” value is on record as “did not have any negative effect on the survival”. The “survival rate of Mut astrocytes under ER-stress conditions” value in the data set with Mut astrocytes is on record as “increased the survival rate”. Besides, the “survival of Mut MEFs under Tunicamycin ER-stress” value in the data set with Mut MEFs [3] was “attenuated the apoptotic effect”.

These data come from patent US20200061076A1, “METHODS OF TREATING LEUKODYSTROPHIES” (Ramot at Tel-Aviv University Ltd., priority 2017, published 2020).
